Test results taken from US8163684B2, “Antimicrobials having polyquaternary ammoniums and alcohol-bearing amidoamines and methods for their use” (Abbott Medical Optics Inc., priority 2008, dated 2012).

Key:
C. albicans = assay: log drop in 6 hours in lens case with PureVision lens, C. albicans; assay type: cell-based, Candida albicans
Description: (§1) Approximately three (3) mL of each solution was introduced into a lens case containing a PureVision® soft contact lens. Each contact lens was maintained in this solution at room temperature for about six (6) hours. The amidoamine used was ricinoleamidopropyl dimethylamine (RAPD), an amidoamine with an alcohol group. Table 1 below provides the ingredients of the contact lens care solutions tested as well as the activity of the various solutions against Candida and Fusarium after six hours.
(§2) To test the biocidal efficacy of a solution comprising the synergistic combination of a polyquaternary ammonium compound and an amidoamine having an alcohol group, four (4) solutions were prepared by blending together the components provided in Table 4. Approximately three (3) mL of three of the solutions was placed into a test tube with A. polyphaga. When utilized, the amidoamine was RAPD and the polyquaternary ammonium compound was polyquaternium-1. Table 4 below provides the ingredients of the contact lens care solutions tested as well as the activity of the solutions against Acanthamoeba polyphaga after six hours.

S. marcescens [1] = assay: log drop at contact time of 6 hours in test tube without lenses, S. marcescens; assay type: cell-based
Method: To test the biocidal efficacy of other solutions comprising the synergistic combination of a polyquaternary ammonium compound and an amidoamine having an alcohol group, three (3) solutions were prepared by blending together the components provided in Table 2. Approximately three (3) mL was placed into a test tube with S. marcescens. When utilized, the amidoamine was RAPD and the polyquaternary ammonium compound was polyquaternium-1. Table 2 below provides the ingredients of the contact lens care solutions tested as well as the activity of the solutions against S. marcescens after six hours. Further testing was performed to test the biocidal efficacy of other solutions comprising the synergistic combination of a polyquaternary ammonium compound and an amidoamine having an alcohol group. Approximately three (3) mL was placed into a test tube with S. marcescens. When utilized, the amidoamine was RAPD and the polyquaternary ammonium compound was polyquaternium-1. Table 3 below provides the ingredients of the contact lens care solutions tested as well as the activity of the solutions against S. marcescens after six hours.

Acanthamoeba polyphaga = assay: log drop in 6 hours in test tube, Acanthamoeba polyphaga; assay type: cell-based
Method: as §2, with “hours. To test the biocidal efficacy of other solutions comprising the synergistic combination of a polyquaternary ammonium compound and an amidoamine having an alcohol group, three (3) solutions were prepared by blending together the components provided in Table 5. Approximately three (3) mL of two of the solutions was placed into a test tube with A. polyphaga. When utilized, the amidoamine was RAPD and the polyquaternary ammonium compound was polyquaternium-1. Table 5 below provides the ingredients of the contact lens care solutions tested as well as the activity of the solutions against A. polyphaga after six hours.” for “hours.”

S. marcescens [2] = assay: log drop at contact time of 6 hours in lens case with PureVision lens, S. marcescens; assay type: cell-based; details: Table 2 solution
Method: To test the biocidal efficacy of other solutions comprising the synergistic combination of a polyquaternary ammonium compound and an amidoamine having an alcohol group, three (3) solutions were prepared by blending together the components provided in Table 2. […] When utilized, the amidoamine was RAPD and the polyquaternary ammonium compound was polyquaternium-1. Table 2 below provides the ingredients of the contact lens care solutions tested as well as the activity of the solutions against S. marcescens after six hours.

F. solani = assay: log drop in 6 hours in lens case with PureVision lens, F. solani; assay type: cell-based; details: for log drop in 6 hours in lens case with PureVision lens, F. solani: sole antimicrobial, Table 1 solution, room temperature
Description: as §1

[3] = system: trophzoite and cyst-type Acanthamoeba; details: stated as known; cited from earlier work
Fusarium = details: stated as known; cited from earlier work
[4] = RAPD 0.0005 % w/w, no CPC, no PQ-1, Table 4 solution
[5] = RAPD as the sole antimicrobial agent, Table 1 solutions

Molecule: CCCCCC[C@@H](O)C/C=C\CCCCCCCC(=O)NCCCN(C)C [RAPD, ricinoleamidopropyl dimethylamine]
- log drop in 6 hours in lens case with PureVision lens, C. albicans (C. albicans; RAPD 0.0002 % w/w, sole antimicrobial, Table 1 solution, room temperature): 0.26 log
- log drop in 6 hours in lens case with PureVision lens, C. albicans (C. albicans; [4]): <0.28 log
- log drop in 6 hours in lens case with PureVision lens, C. albicans (C. albicans; RAPD 0.0005 % w/w, sole antimicrobial, Table 1 solution, room temperature): 0.33 log
- log drop in 6 hours in lens case with PureVision lens, C. albicans (C. albicans; RAPD 0.001 % w/w, sole antimicrobial, Table 1 solution, room temperature): 0.21 log
- biocidal activity against Candida (in words) (C. albicans; [5]): very low biocidal activity
- log drop at contact time of 6 hours in test tube without lenses, S. marcescens (S. marcescens [1]; RAPD 0.0005 % w/w, no PQ-1, Table 3 solution): 0.44 log
- log drop at contact time of 6 hours in test tube without lenses, S. marcescens (S. marcescens [1]; RAPD 0.001 % w/w, no PQ-1, Table 3 solution): 1.51 log
- log drop at contact time of 6 hours in test tube without lenses, S. marcescens (S. marcescens [1]; RAPD 0.002 % w/w, no PQ-1, Table 2 solution): 1.77 log
- log drop in 6 hours in test tube, Acanthamoeba polyphaga (Acanthamoeba polyphaga; [4]): 0.18 log
- log drop in 6 hours in test tube, A. polyphaga (Acanthamoeba polyphaga; RAPD 0.002 % w/w, no PQ-1, no CPC, Table 5 solution): 1.90 log
- log drop at contact time of 6 hours in lens case with PureVision lens, S. marcescens (S. marcescens [2]; RAPD 0.002 % w/w, no PQ-1): 0.91 log
- log drop in 6 hours in lens case with PureVision lens, F. solani (F. solani; RAPD 0.0002 % w/w): 0.48 log
- log drop in 6 hours in lens case with PureVision lens, F. solani (F. solani; RAPD 0.0005 % w/w): 0.37 log
- log drop in 6 hours in lens case with PureVision lens, F. solani (F. solani; RAPD 0.001 % w/w): 0.35 log
- biocidal activity against Fusarium (in words) (F. solani; [5]): very low biocidal activity

Molecule: CCCCC(CC)CNC(=N)NC(=N)NCCCCCCNC(=N)NC(=N)NCC(CC)CCCC (stereo not shown) [alexidine]
- biocidal activity against trophzoite and cyst-type Acanthamoeba (in words) [3]: very biocidal
- biocidal activity against Fusarium (in words) (Fusarium): not very biocidal

Molecule: poly[(dimethyliminio)-2-butene-1,4-diylchloride (1:1)], a-[4-[tris(2-hydroxyethyl)ammonio]-2-buten-1-yl]-w-[tris(2-hydroxyethyl)ammonio]-chloride [PQ-1]
- log drop at contact time of 6 hours in test tube without lenses, S. marcescens (S. marcescens [1]; PQ-1 0.001 % w/w, no RAPD, citrate/borate solution of Tables 2 and 3): 1.53 log
- log drop at contact time of 6 hours in lens case with PureVision lens, S. marcescens (S. marcescens [2]; PQ-1 0.001 % w/w, no RAPD): 1.07 log
